Measured values: patent publication US12662489B2 (Sitryx Therapeutics Limited, priority 2023, dated 2026)
pIC50: −log10 of the molar value.

What was measured:
[1] = target: T1, MTHFD1 recombinant human enzyme (Homo sapiens, UniProt P11586); test: MTHFD1 inhibition assay (NAD(P)H-Glo luminescence); details: MTHFD1 IC50, recombinant human enzyme 200 nM, NADP, band
T1 sequence (P11586 2-291 limits assumed): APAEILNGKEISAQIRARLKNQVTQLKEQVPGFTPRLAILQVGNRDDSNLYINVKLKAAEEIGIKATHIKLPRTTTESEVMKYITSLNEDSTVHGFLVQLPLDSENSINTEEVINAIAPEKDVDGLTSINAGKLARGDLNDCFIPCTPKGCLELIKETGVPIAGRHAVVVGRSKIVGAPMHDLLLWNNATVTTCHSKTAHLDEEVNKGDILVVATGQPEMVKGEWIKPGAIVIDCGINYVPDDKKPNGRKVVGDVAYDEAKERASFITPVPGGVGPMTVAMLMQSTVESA

[2] = tested on: human CD4+ T cells; test: Human CD4+ T-cell proliferation assay (CFSE, CD3/28 beads); details: read-out: Proliferation IC50
[3] = target: T2, MTHFD2 recombinant human enzyme (Homo sapiens, UniProt P13995); test: MTHFD2 inhibition assay (NAD(P)H-Glo luminescence); details: for MTHFD1/MTHFD2 IC50 ratio: selectivity of MTHFD2 inhibition over MTHFD1, band
T2 sequence (P13995 36-350): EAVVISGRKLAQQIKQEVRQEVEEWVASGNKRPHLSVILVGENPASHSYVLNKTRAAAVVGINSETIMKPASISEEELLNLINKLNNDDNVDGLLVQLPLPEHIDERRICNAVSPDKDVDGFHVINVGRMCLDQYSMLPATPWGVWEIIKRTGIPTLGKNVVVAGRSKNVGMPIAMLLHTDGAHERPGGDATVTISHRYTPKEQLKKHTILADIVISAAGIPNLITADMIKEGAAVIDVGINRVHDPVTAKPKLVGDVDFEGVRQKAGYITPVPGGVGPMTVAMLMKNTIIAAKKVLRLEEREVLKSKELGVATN

Row | SMILES | pIC50 [1] | pIC50 [3] | MTHFD1/MTHFD2 IC50 ratio [3] | pIC50 [2]
1 | COC[C@H]1CN(c2cc(C)c3c4c(c(=O)oc3c2C)CN(C(=O)c2cc(N(C)C)c(C(=O)NS(=O)(=O)N3C[C@@H]5C[C@H]3CO5)cc2F)CC4)CCN1C [Example 313, N-(((1S,4S)-2-oxa-5-azabicyclo[2.2.1]heptan-5-yl)sulfonyl)-2-(dimethylamino)-5-fluoro-4-(8-((R)-3-(methoxymethyl)-4-methylpiperazin-1-yl)-7,10-dimethyl-5-oxo-1,3,4,5-tetrahydro-2H-chromeno[3,4-c]pyridine-3-carbonyl)benzamide] | 6.00 to 7.00 | 8.00 to 9.00 | J (>30) | 7.00 to 7.52
2 | CCOc1cc(C(=O)N2CCc3c(c(=O)oc4c(C)c(N5CCN(C)[C@@H](COC)C5)cc(C)c34)C2)c(F)cc1C(=O)NS(=O)(=O)N1CC2CC2C1 (stereo partly drawn) [Example 219, N-((3-azabicyclo[3.1.0]hexan-3-yl)sulfonyl)-2-ethoxy-5-fluoro-4-(8-((R)-3-(methoxymethyl)-4-methylpiperazin-1-yl)-7,10-dimethyl-5-oxo-1,3,4,5-tetrahydro-2H-chromeno[3,4-c]pyridine-3-carbonyl)benzamide] | 7.00 to 8.00 | 7.00 to 8.00 | G (^ 3 to 9.0) | 7.52 to 8.00
3 | COC[C@H]1CN(c2cc(C)c3c4c(c(=O)oc3c2C)CN(C(=O)c2ccc(C(=O)NS(=O)(=O)N3C5CCC3CC5)c(C)c2F)CC4)CCN1C [Example 241] | 6.00 to 7.00 | 7.00 to 8.00 | H (>9.0 to 30) | 6.00 to 7.00
4 | COC[C@H]1CN(c2ccc3c4c(c(=O)oc3c2C)CN(C(=O)c2cc(F)c(C(=O)NS(=O)(=O)C3(C)CC3)c(N3C5CCC3CC5)c2)CC4)CCN1C [Example 22, (R)-2-(7-azabicyclo[2.2.1]heptan-7-yl)-6-fluoro-4-(8-(3-(methoxymethyl)-4-methylpiperazin-1-yl)-7-methyl-5-oxo-1,3,4,5-tetrahydro-2H-chromeno[3,4-c]pyridine-3-carbonyl)-N-((1-methylcyclopropyl)sulfonyl)benzamide] | 8.00 to 9.00 | 8.00 to 9.00 | F (<3) | 7.52 to 8.00
5 | CCOc1cc(C(=O)N2CCc3c(c(=O)oc4c(C)c(N5CCN(C)[C@@H](COC)C5)cc(C)c34)C2)c(F)cc1C(=O)NS(=O)(=O)N1CC[C@H](F)C1 [Example 268, 2-ethoxy-5-fluoro-N-(((S)-3-fluoropyrrolidin-1-yl)sulfonyl)-4-(8-((R)-3-(methoxymethyl)-4-methylpiperazin-1-yl)-7,10-dimethyl-5-oxo-1,3,4,5-tetrahydro-2H-chromeno[3,4-c]pyridine-3-carbonyl)benzamide] | 6.00 to 7.00 | 8.00 to 9.00 | J (>30) | 8.00 to 9.00
6 | COC[C@H]1CN(c2cc(Cl)c3c4c(c(=O)oc3c2C)CN(C(=O)c2cc(OC)c(C(=O)NS(=O)(=O)N3CC5CC5C3)cc2F)CC4)CCN1C (stereo partly drawn) [Example 325, N-((3-azabicyclo[3.1.0]hexan-3-yl)sulfonyl)-4-(10-chloro-8-((R)-3-(methoxymethyl)-4-methylpiperazin-1-yl)-7-methyl-5-oxo-1,3,4,5-tetrahydro-2H-chromeno[3,4-c]pyridine-3-carbonyl)-5-fluoro-2-methoxybenzamide] | 6.00 to 7.00 | 8.00 to 9.00 | J (>30) | 6.00 to 7.00
7 | COC[C@H]1CN(c2cc(Cl)c3c4c(c(=O)oc3c2C)CN(C(=O)c2cc(N(C)C)c(C(=O)NS(=O)(=O)N3C[C@H]5C[C@@H]3CO5)cc2F)CC4)CCN1C [Example 294, N-(((1R,4R)-2-oxa-5-azabicyclo[2.2.1]heptan-5-yl)sulfonyl)-4-(10-chloro-8-((R)-3-(methoxymethyl)-4-methylpiperazin-1-yl)-7-methyl-5-oxo-1,3,4,5-tetrahydro-2H-chromeno[3,4-c]pyridine-3-carbonyl)-2-(dimethylamino)-5-fluorobenzamide] | 6.00 to 7.00 | 7.00 to 8.00 | J (>30) | 7.52 to 8.00
8 | COC[C@H]1CN(c2cc(C)c3c4c(c(=O)oc3c2C)CN(C(=O)c2cc(N(C)C)c(C(=O)NS(=O)(=O)N3C5CCC3CC5)cc2Cl)CC4)CCN1C [Example 193, (R)-N-((7-azabicyclo[2.2.1]heptan-7-yl)sulfonyl)-5-chloro-2-(dimethylamino)-4-(8-(3-(methoxymethyl)-4-methylpiperazin-1-yl)-7,10-dimethyl-5-oxo-1,3,4,5-tetrahydro-2H-chromeno[3,4-c]pyridine-3-carbonyl)benzamide] | 5.30 to 6.00 | 7.00 to 8.00 | J (>30) | 7.00 to 7.52
9 | COC[C@H]1CN(c2ccc3c4c(c(=O)oc3c2Cl)CN(C(=O)c2ccc(C(=O)NS(=O)(=O)C3(C)CC3)c(OC3CCCC3)c2F)CC4)CCN1C [Example 57, (R)-4-(7-chloro-8-(3-(methoxymethyl)-4-methylpiperazin-1-yl)-5-oxo-1,3,4,5-tetrahydro-2H-chromeno[3,4-c]pyridine-3-carbonyl)-2-(cyclopentyloxy)-3-fluoro-N-((1-methylcyclopropyl)sulfonyl)benzamide] | 8.00 to 9.00 | 8.00 to 9.00 | F (<3) | –

The next lines start with results.

Row | pIC50 [1] | pIC50 [3] | MTHFD1/MTHFD2 IC50 ratio [3] | SMILES | pIC50 [2]
10 | 5.30 to 6.00 | 7.00 to 8.00 | J (>30) | COC[C@H]1CN(c2cc(C)c3c4c(c(=O)oc3c2C)CN(C(=O)c2cc(N)c(C(=O)NS(=O)(=O)N3CCCC3)cc2F)CC4)CCN1C [Example 196, (R)-2-amino-5-fluoro-4-(8-(3-(methoxymethyl)-4-methylpiperazin-1-yl)-7,10-dimethyl-5-oxo-1,3,4,5-tetrahydro-2H-chromeno[3,4-c]pyridine-3-carbonyl)-N-(pyrrolidin-1-ylsulfonyl)benzamide] | < 5.30
11 | 6.00 to 7.00 | 7.00 to 8.00 | J (>30) | COC[C@H]1CN(c2cc(C)c3c4c(c(=O)oc3c2C)CN(C(=O)c2ccc(C(=O)NS(=O)(=O)N3CCCC3)c(Cl)c2F)CC4)CCN1C [Example 178, (R)-2-chloro-3-fluoro-4-(8-(3-(methoxymethyl)-4-methylpiperazin-1-yl)-7,10-dimethyl-5-oxo-1,3,4,5-tetrahydro-2H-chromeno[3,4-c]pyridine-3-carbonyl)-N-(pyrrolidin-1-ylsulfonyl)benzamide] | 6.00 to 7.00
12 | 6.00 to 7.00 | 8.00 to 9.00 | J (>30) | [2H]C([2H])([2H])Oc1cc(C(=O)N2CCc3c(c(=O)oc4c(C)c(N5CCN(C)[C@@H](COC)C5)cc(C)c34)C2)c(F)cc1C(=O)NS(=O)(=O)N1CCCC1 [Example 225, (R)-5-fluoro-2-(methoxy-d3)-4-(8-(3-(methoxymethyl)-4-methylpiperazin-1-yl)-7,10-dimethyl-5-oxo-1,3,4,5-tetrahydro-2H-chromeno[3,4-c]pyridine-3-carbonyl)-N-(pyrrolidin-1-ylsulfonyl)benzamide] | 7.00 to 7.52
13 | 5.30 to 6.00 | 7.00 to 8.00 | J (>30) | COC[C@H]1CN(c2cc(C)c3c4c(c(=O)oc3c2C)CN(C(=O)c2cc(OC3CCCC3)c(C(=O)NS(=O)(=O)N3CCCC3)c(C(F)(F)F)c2)CC4)CCN1C [Example 129, (R)-2-(cyclopentyloxy)-4-(8-(3-(methoxymethyl)-4-methylpiperazin-1-yl)-7,10-dimethyl-5-oxo-1,3,4,5-tetrahydro-2H-chromeno[3,4-c]pyridine-3-carbonyl)-N-(pyrrolidin-1-ylsulfonyl)-6-(trifluoromethyl)benzamide] | 6.00 to 7.00
14 | 6.00 to 7.00 | 8.00 to 9.00 | J (>30) | CCOc1cc(C(=O)N2CCc3c(c(=O)oc4c(C)c(N5CCN(C)[C@@H](COC)C5)cc(Cl)c34)C2)c(F)cc1C(=O)NS(=O)(=O)N1CCCC1 [Example 259, (R)-4-(10-chloro-8-(3-(methoxymethyl)-4-methylpiperazin-1-yl)-7-methyl-5-oxo-1,3,4,5-tetrahydro-2H-chromeno[3,4-c]pyridine-3-carbonyl)-2-ethoxy-5-fluoro-N-(pyrrolidin-1-ylsulfonyl)benzamide] | 7.00 to 7.52
15 | 6.00 to 7.00 | 7.00 to 8.00 | J (>30) | CCOc1cc(C(=O)N2CCc3c(c(=O)oc4c(C)c(N5CCN(C)[C@@H](COC)C5)cc(CC)c34)C2)c(F)cc1C(=O)NS(=O)(=O)N1CCCC1 [Example 244, (R)-2-ethoxy-4-(10-ethyl-8-(3-(methoxymethyl)-4-methylpiperazin-1-yl)-7-methyl-5-oxo-1,3,4,5-tetrahydro-2H-chromeno[3,4-c]pyridine-3-carbonyl)-5-fluoro-N-(pyrrolidin-1-ylsulfonyl)benzamide] | 6.00 to 7.00
